# Experimental data: PMC6672008, “Small molecule degraders of the hepatitis C virus protease reduce susceptibility to resistance mutations” (Nature Communications, 2019)
# “And” between values parts separate entries of the source, which are not always exact repeats. Identical values can stand only once. “Also recorded” adds a separate entry of the source. Like-named read-outs stand apart in the source and are kept apart here.
# Experiments:
# [1] = molecular target: T1, CRBN (Homo sapiens, UniProt Q96SW2); experiment: Competitive displacement assay for cellular CRBN engagement (rescue of dBET6-mediated BRD4BD2-eGFP degradation); assay type: cell-based; settings: co-treated with 100 nM dBET6, 5 h
# [2] = molecular target: HCV NS3-eGFP protein fusion (Hepatitis C virus genotype 2a, UniProt Q99IB8); assay type: cell-based; settings: for DC50: 4 h treatment; for degradation of HCV NS3 in the transient assay (in words): increasing concentrations
# [3] = system: HCV-JFH1-ad; experiment: microbe, parasite or virus in culture; assay type: cell-based, hepatitis C virus
# [4] = Cytotoxicity assay (CellTiter-Glo, 24 h); assay type: cell-based; settings: human, CC50 (50% loss of viability)
# [5] = molecular target: T2, HCV NS3 (Hepatitis C virus genotype 2a, UniProt Q99IB8); assay type: cell-based; settings: percentage of DMSO-treated control, 1000 nM (legend; picture prints 500nM)
# [6] = molecular target: DDB1∆B-CRBN (Homo sapiens, UniProt Q96SW2); experiment: CRBN-binding assay (fluorescence polarization, displacement of Atto565-lenalidomide); settings: fluorescence polarization competition
# Procedure: Measurement of compounds binding to CRBN was performed by fluorescence polarization. […] Compounds were dispensed using a D300e Digital Dispenser (HP), normalized to 1% DMSO, and incubated for 60 min at room temperature. The change in fluorescence polarization was monitored using a PHERAstar FS microplate reader (BMG Labtech) for 20 min in 200 s cycles. […]
# Increasing concentrations of compounds were titrated to preformed DDB1∆B-CRBN-lenalidomideAtto565 complex. Data are presented as means normalized to DMSO ± standard deviation of n = 4 technical replicates. […]
# d Measurement of NS3/4A protease inhibition in vitro. Cell lysates containing the endogenous NS3/4A protease were prepared from cells stably expressing an HCV […]
# subgenomic replicon. […]
# [7] = molecular target: T2, HCV NS3; assay type: cell-based; settings: 1000 nM, 4 h
# [8] = system: HCV NS3; assay type: cell-based, hepatitis C virus; settings: 1000 nM, 4 h; selectivity
# [9] = system: wildtype HCV-Jc1; experiment: microbe, parasite or virus in culture; assay type: cell-based, hepatitis C virus
# [10] = system: HCV-NS3-V55A; experiment: microbe, parasite or virus in culture; assay type: cell-based, hepatitis C virus
# [11] = system: HCV-NS3-A156S; experiment: microbe, parasite or virus in culture; assay type: cell-based, hepatitis C virus
# [12] = molecular target: T1, CRBN; experiment: Cellular thermal shift assay for CRBN engagement (HEK293T cells); assay type: cell-based; settings: 1 h at 37 °C, heated at 61 °C, dose-response
# [13] = 500 nM compound + 500 nM lenalidomide, 4 h, Supplementary Fig. 4c
# [14] = 500 nM compound + 5000 nM lenalidomide, 4 h, Supplementary Fig. 4c
# [15] = 500 nM compound + DMSO, 4 h, Supplementary Fig. 4c
# [16] = read-out: NS3-eGFP degradation DC50, average value reported, average of n ≥ 2 independent experiments
# [17] = read-out: NS3-eGFP degradation DC50, single experiments, individual experiments (source data)
# [18] = Hepatitis C virus, Huh7.5, read-out: antiviral IC50 (50% reduction in viral titers), average value reported, Huh7.5, MOI 0.1, treated 24 to 48 h post-infection, average of n ≥ 2 experiments
# [19] = Hepatitis C virus, Huh7.5, read-out: antiviral IC50 (50% reduction in viral titers), single experiments, Huh7.5, MOI 0.1, treated 24 to 48 h post-infection, individual experiments
# [20] = read-out: antiviral IC50 (50% reduction in viral titers), single experiments, Huh7.5, MOI 0.1, treated 24 to 48 h post-infection, individual experiments
# [21] = average value reported, averaged from n = 2
# [22] = single experiments, individual experiments
# [23] = Huh7.5 CRBN-/-, HCV-JFH1-ad MOI 0.1, 24 to 48 h post-infection
# [24] = wildtype Huh7.5, HCV-JFH1-ad MOI 0.1, 24 to 48 h post-infection
# [25] = 1000 nM compound + 5000 nM lenalidomide, 4 h, Fig. 2d
# [26] = 1000 nM compound + DMSO, 4 h, Fig. 2d
smiles,measurement,setting,value
CCC[C@H](NC(=O)[C@@H]1[C@H]2CCC[C@H]2CN1C(=O)[C@@H](NC(=O)[C@@H](NC(=O)c1cnc(C(=O)NCCCCCCNc2cccc3c2CN(C2CCC(=O)NC2=O)C3=O)cn1)C1CCCCC1)C(C)(C)C)C(=O)C(=O)NC1CC1 (some centres unmarked) [DGY-03-081],EC50,[1],576 nM
same,"NS3-eGFP/mCherry ratio normalized to DMSO, average",[2]; [13],0.71
same,"NS3-eGFP/mCherry ratio normalized to DMSO, single experiments",[2]; [13],0.72 and 0.71
same,"NS3-eGFP/mCherry ratio normalized to DMSO, average",[2]; [14],0.84
same,"NS3-eGFP/mCherry ratio normalized to DMSO, single experiments",[2]; [14],0.85 and 0.83
same,"NS3-eGFP/mCherry ratio normalized to DMSO, average",[2]; [15],0.65
same,"NS3-eGFP/mCherry ratio normalized to DMSO, single experiments",[2]; [15],0.65 and 0.64
same,DC50,[2]; [16],669 nM
same,DC50,[2]; [17],642 nM and 695 nM
same,IC50,[3]; [18],3070 nM
same,IC50,[3]; [19],3300 nM
same,IC50,[3]; [20],2840 nM
same,CC50 at 24 h,[4]; [21],> 40000 nM
same,CC50 at 24 h,[4]; [22],> 40000 nM
same,"relative NS3 levels (normalized to GAPDH), CRBN-/- cells, average",[5]; [23],101%
same,"relative NS3 levels (normalized to GAPDH), wildtype cells, average",[5]; [24],50%
CCC[C@H](NC(=O)[C@@H]1[C@H]2CCC[C@H]2CN1C(=O)[C@@H](NC(=O)[C@@H](NC(=O)c1cnc(C(=O)NCCOCCOCCNc2cccc3c2C(=O)N(C2CCC(=O)N(C)C2=O)C3=O)cn1)C1CCCCC1)C(C)(C)C)C(=O)C(=O)NC1CC1 (some centres unmarked) [DGY-04-035-BUMP],"NS3-eGFP/mCherry ratio normalized to DMSO, average",[2]; [13],0.98
same,"NS3-eGFP/mCherry ratio normalized to DMSO, single experiments",[2]; [13],0.98 and 0.99
same,"NS3-eGFP/mCherry ratio normalized to DMSO, average",[2]; [14],0.98
same,"NS3-eGFP/mCherry ratio normalized to DMSO, single experiments",[2]; [14],1.00 and 0.97
same,"NS3-eGFP/mCherry ratio normalized to DMSO, average",[2]; [15],0.98
same,"NS3-eGFP/mCherry ratio normalized to DMSO, single experiments",[2]; [15],0.98 and 0.99
same,degradation of HCV NS3 in the transient assay (in words),[2]; 4 h,neither compound induced degradation of HCV NS3
same,binding to CRBN (in words),[6],Neither DGY-04-035-BUMP nor DGY-08-097-BUMP exhibit detectable binding to CRBN; also recorded: loss of CRBN-binding
same,CC50 at 24 h,[4]; [21],> 40000 nM
same,CC50 at 24 h,[4]; [22],> 40000 nM
CCC[C@H](NC(=O)[C@@H]1[C@H]2CCC[C@H]2CN1C(=O)[C@@H](NC(=O)[C@@H](NC(=O)c1cnc(C(=O)NCCOCCOCCNc2cccc3c2C(=O)N(C2CCC(=O)NC2=O)C3=O)cn1)C1CCCCC1)C(C)(C)C)C(=O)C(=O)NC1CC1 (some centres unmarked) [DGY-04-035],EC50,[1],641 nM
same,"NS3-eGFP/mCherry ratio normalized to DMSO, average",[2]; [13],0.66
same,"NS3-eGFP/mCherry ratio normalized to DMSO, single experiments",[2]; [13],0.67 and 0.64
same,"NS3-eGFP/mCherry ratio normalized to DMSO, average",[2]; [14],0.86
same,"NS3-eGFP/mCherry ratio normalized to DMSO, single experiments",[2]; [14],0.87 and 0.85
same,"NS3-eGFP/mCherry ratio normalized to DMSO, average",[2]; [15],0.54
same,"NS3-eGFP/mCherry ratio normalized to DMSO, single experiments",[2]; [15],0.54 and 0.53
same,DC50,[2]; [16],489 nM
same,DC50,[2]; [17],444 nM and 438 nM and 379 nM and 650 nM and 532 nM
same,IC50,[3]; [19],2160 nM
same,IC50,[3]; [20],2650 nM and 3950 nM
same,CC50 at 24 h,[4]; [21],> 40000 nM
same,CC50 at 24 h,[4]; [22],> 40000 nM
same,"relative NS3 levels (normalized to GAPDH), CRBN-/- cells, average",[5]; [23],87%
same,"relative NS3 levels (normalized to GAPDH), CRBN-/- cells, single experiments",[5]; [23],107% and 74% and 80%
same,"relative NS3 levels (normalized to GAPDH), wildtype cells, average",[5]; [24],48%
same,"relative NS3 levels (normalized to GAPDH), wildtype cells, single experiments",[5]; [24],54% and 46% and 44%
CCC[C@H](NC(=O)[C@@H]1[C@H]2CCC[C@H]2CN1C(=O)[C@@H](NC(=O)[C@@H](NC(=O)c1cnc(C(=O)NCCOCCOCCOc2cc3c4c(cccc4c2)C(=O)N(C2CCC(=O)N(C)C2=O)C3=O)cn1)C1CCCCC1)C(C)(C)C)C(=O)C(=O)NC1CC1 (some centres unmarked) [DGY-08-097-BUMP],"NS3-eGFP/mCherry ratio normalized to DMSO, average",[2]; [25],0.96
same,"NS3-eGFP/mCherry ratio normalized to DMSO, single experiments",[2]; [25],0.92 and 1.00
same,"NS3-eGFP/mCherry ratio normalized to DMSO, average",[2]; [26],0.92
same,"NS3-eGFP/mCherry ratio normalized to DMSO, single experiments",[2]; [26],0.92
same,degradation of HCV NS3 in the transient assay (in words),[2]; 4 h,neither compound induced degradation of HCV NS3
same,change of HCV NS3 abundance vs DMSO (in words),[7],No significant degradation of HCV NS3 or any other cellular protein; also recorded: unaffected
same,binding to CRBN (in words),[6],Neither DGY-04-035-BUMP nor DGY-08-097-BUMP exhibit detectable binding to CRBN; also recorded: loss of CRBN-binding
same,CC50 at 24 h,[4]; [21],> 40000 nM
same,CC50 at 24 h,[4]; [22],> 40000 nM
CCC[C@H](NC(=O)[C@@H]1[C@H]2CCC[C@H]2CN1C(=O)[C@@H](NC(=O)[C@@H](NC(=O)c1cnc(C(=O)NCCOCCOCCOc2cc3c4c(cccc4c2)C(=O)N(C2CCC(=O)NC2=O)C3=O)cn1)C1CCCCC1)C(C)(C)C)C(=O)C(=O)NC1CC1 (some centres unmarked) [DGY-08-097],EC50,[1],703 nM
same,"NS3-eGFP/mCherry ratio normalized to DMSO, average",[2]; [25],0.60
same,"NS3-eGFP/mCherry ratio normalized to DMSO, single experiments",[2]; [25],0.62 and 0.58
same,"NS3-eGFP/mCherry ratio normalized to DMSO, average",[2]; [26],0.24
same,"NS3-eGFP/mCherry ratio normalized to DMSO, single experiments",[2]; [26],0.23 and 0.25
same,concentrations at which a hook effect was observed in the transient NS3 degradation assay,[2]; 4 h,above 1000 nM
same,DC50,[2]; [16],50 nM
same,DC50,[2]; [17],51 nM and 49 nM and 46 nM and 54 nM
same,degradation of IMiDs neo-substrates IKZF1 and IKZF3,[8],no degradation
same,other proteins significantly affected (of ~8700 quantified),[8],no other protein of the ~8700 quantified was observed to be significantly affected
same,IC50,[3]; [18],748 nM
same,IC50,[3]; [20],706 nM and 627 nM and 425 nM and 1230 nM
same,IC50,"[9]; Hepatitis C virus, Huh7.5, read-out: antiviral IC50, wildtype virus, average value reported, Huh7.5, MOI 0.1, treated 24 to 48 h post-infection",558 nM
same,IC50,"[9]; Hepatitis C virus, Huh7.5, read-out: antiviral IC50, wildtype virus, single experiments, Huh7.5, MOI 0.1, treated 24 to 48 h post-infection",630 nM
same,IC50,"[9]; read-out: antiviral IC50, wildtype virus, single experiments, Huh7.5, MOI 0.1, treated 24 to 48 h post-infection",417 nM and 627 nM
same,IC50,"[10]; Hepatitis C virus, Huh7.5, read-out: antiviral IC50, NS3-V55A virus, average value reported, Huh7.5, MOI 0.1, treated 24 to 48 h post-infection",508 nM
same,IC50,"[10]; Hepatitis C virus, Huh7.5, read-out: antiviral IC50, NS3-V55A virus, single experiments, Huh7.5, MOI 0.1, treated 24 to 48 h post-infection",403 nM
same,IC50,"[10]; read-out: antiviral IC50, NS3-V55A virus, single experiments, Huh7.5, MOI 0.1, treated 24 to 48 h post-infection",380 nM and 742 nM
same,IC50,"[11]; Hepatitis C virus, Huh7.5, read-out: antiviral IC50, NS3-A156S virus, average value reported, Huh7.5, MOI 0.1, treated 24 to 48 h post-infection",1560 nM
same,IC50,"[11]; Hepatitis C virus, Huh7.5, read-out: antiviral IC50, NS3-A156S virus, single experiments, Huh7.5, MOI 0.1, treated 24 to 48 h post-infection",2020 nM
same,"change in antiviral potency, NS3-A156S vs wildtype",[11]; ratio of IC50 values,3 fold
same,IC50,"[11]; read-out: antiviral IC50, NS3-A156S virus, single experiments, Huh7.5, MOI 0.1, treated 24 to 48 h post-infection",1110 nM
same,CC50 at 24 h,[4]; [21],> 40000 nM
same,CC50 at 24 h,[4]; [22],> 40000 nM
same,stabilization of CRBN in cellular thermal shift assay,[12],concentration-dependent stabilization of CRBN
